Results taken from ChEMBL document CHEMBL3044862, “Quantitative Structure-Activity Relationships of Fluazinam and Related Fungicidal N-Phenylpyridinamines” (1995).
≈ marks a conversion by molar mass, not a printed value.

The compounds below were run on Botrytis cinerea (assay: Fungicidal activity against Botryotinia fuckeliana inoculated on compound pre-treated one-leaf stage cucumber seedlings assessed as prevention of leaf lesions measured 3 days after inoculation).
Format: functional
Work on `COc1c(C(F)(F)F)cc([N+](=O)[O-])c(Nc2ncc(C(F)(F)F)cc2Cl)c1[N+](=O)[O-]` yielded an MIC of over 500 µg/mL. Work on `N#Cc1c(Cl)c(Cl)c(Cl)c(C#N)c1Nc1ncc(C(F)(F)F)cc1Cl` yielded an MIC of over 500 µg/mL. Work on `O=[N+]([O-])c1c(Cl)c(C(F)(F)F)c(Cl)c([N+](=O)[O-])c1Nc1ncc(C(F)(F)F)cc1Cl` yielded an MIC of 250 µg/mL (≈ 500 µM). Compound `COC(=O)c1cnc(Nc2c([N+](=O)[O-])cc(C(F)(F)F)c(Cl)c2[N+](=O)[O-])c(Cl)c1` has an MIC of over 500 µg/mL. With `O=[N+]([O-])c1cc(C(F)(F)F)c(Cl)c([N+](=O)[O-])c1Nc1ncc(Cl)cc1Br` the MIC was over 500 µg/mL. Compound `FC(F)(F)c1cnc(Nc2cc(Cl)cc(Cl)c2)c(Cl)c1` has an MIC of over 500 µg/mL. `O=[N+]([O-])c1cc(C(F)(F)F)c(Oc2ccc(C(F)(F)F)cc2Cl)c([N+](=O)[O-])c1Nc1ncc(C(F)(F)F)cc1Cl` showed an MIC of over 500 µg/mL. Compound `O=[N+]([O-])c1cc(C(F)(F)F)c(Cl)c([N+](=O)[O-])c1Nc1ncc(Cl)cc1Cl` has an MIC of over 500 µg/mL. For `O=[N+]([O-])c1cc(C(F)(F)F)c(Cl)c([N+](=O)[O-])c1Nc1cc(C(F)(F)F)c(Cl)cn1`, the MIC was 16 µg/mL (≈ 34.4 µM). With `C[S+]([O-])c1c(C(F)(F)F)cc([N+](=O)[O-])c(Nc2ncc(C(F)(F)F)cc2Cl)c1[N+](=O)[O-]` (stereo unspecified) the MIC was over 500 µg/mL. Work on `O=[N+]([O-])c1cc(C(F)(F)F)c(Br)c([N+](=O)[O-])c1Nc1ncc(C(F)(F)F)cc1Cl` yielded an MIC of under 16 µg/mL. In the case of `Fc1c(Cl)cc(Nc2ncc(C(F)(F)F)cc2Cl)c(F)c1Cl`, the MIC is reported as over 500 µg/mL. For `O=[N+]([O-])c1cc(C(F)(F)F)c(I)c([N+](=O)[O-])c1Nc1ncc(C(F)(F)F)cc1Cl`, the MIC was over 500 µg/mL. With `O=[N+]([O-])c1c(Cl)cc(Nc2ncc(C(F)(F)F)cc2Cl)c([N+](=O)[O-])c1Cl` the MIC was over 500 µg/mL. `N#CNc1c(C(F)(F)F)cc([N+](=O)[O-])c(Nc2ncc(C(F)(F)F)cc2Cl)c1[N+](=O)[O-]` gave an MIC of over 500 µg/mL. Compound `O=[N+]([O-])c1cc(C(F)(F)F)c(Cl)c([N+](=O)[O-])c1Nc1ncc(C(F)(F)F)cc1C(F)(F)F` has an MIC of under 16 µg/mL. In the case of `O=[N+]([O-])c1cc(C(F)(F)F)c(OCCCl)c([N+](=O)[O-])c1Nc1ncc(C(F)(F)F)cc1Cl`, the MIC is reported as over 500 µg/mL. In the case of `O=[N+]([O-])c1cc(C(F)(F)F)c(F)c([N+](=O)[O-])c1Nc1ncc(C(F)(F)F)cc1Cl`, the MIC is reported as over 500 µg/mL. Compound `COC(=O)c1cc([N+](=O)[O-])c(Nc2ncc(C(F)(F)F)cc2Cl)c([N+](=O)[O-])c1Cl` has an MIC of over 500 µg/mL. For `Oc1c(Cl)cc(Nc2ncc(C(F)(F)F)cc2Cl)cc1Cl`, the MIC was over 500 µg/mL. `O=[N+]([O-])c1c(Cl)cc(Cl)c([N+](=O)[O-])c1Nc1ncc(C(F)(F)F)cc1Cl` was tested, and the MIC was over 500 µg/mL. In the case of `O=[N+]([O-])c1cc(C(F)(F)F)c(Oc2cccc(C(F)(F)F)c2)c([N+](=O)[O-])c1Nc1ncc(C(F)(F)F)cc1Cl`, the MIC is reported as over 500 µg/mL. `CCOc1c(C(F)(F)F)cc([N+](=O)[O-])c(Nc2ncc(C(F)(F)F)cc2Cl)c1[N+](=O)[O-]` showed an MIC of over 500 µg/mL. Work on `O=[N+]([O-])c1cc(C(F)(F)F)c(Nc2ncc(C(F)(F)F)cc2Cl)c([N+](=O)[O-])c1Cl` yielded an MIC of under 16 µg/mL. Work on `Cc1c(Cl)cnc(Nc2c([N+](=O)[O-])cc(C(F)(F)F)c(Cl)c2[N+](=O)[O-])c1Cl` yielded an MIC of over 500 µg/mL. `Cc1cc([N+](=O)[O-])c(Nc2ncc(C(F)(F)F)cc2Cl)c([N+](=O)[O-])c1Cl` showed an MIC of over 500 µg/mL. For `N#CSc1c(C(F)(F)F)cc([N+](=O)[O-])c(Nc2ncc(C(F)(F)F)cc2Cl)c1[N+](=O)[O-]`, the MIC was over 500 µg/mL. Compound `O=[N+]([O-])c1cc(C(F)(F)F)c(Cl)c([N+](=O)[O-])c1Nc1nc(F)c(C(F)(F)F)cc1Cl` has an MIC of under 16 µg/mL. Compound `Nc1c(C(F)(F)F)cc([N+](=O)[O-])c(Nc2ncc(C(F)(F)F)cc2Cl)c1[N+](=O)[O-]` has an MIC of over 500 µg/mL. For `O=[N+]([O-])c1cc(C(F)(F)F)c(Oc2ccc(C(F)(F)F)cc2)c([N+](=O)[O-])c1Nc1ncc(C(F)(F)F)cc1Cl`, the MIC was over 500 µg/mL. `O=[N+]([O-])c1cc(C(F)(F)F)c(Cl)c([N+](=O)[O-])c1Nc1nc(C(F)(F)F)c(Cl)cc1Cl` showed an MIC of under 16 µg/mL. `O=C(O)c1cnc(Nc2c([N+](=O)[O-])cc(C(F)(F)F)c(Cl)c2[N+](=O)[O-])c(Cl)c1` was tested, and the MIC was over 500 µg/mL. With `O=[N+]([O-])c1cc(C(F)(F)F)c(Cl)c([N+](=O)[O-])c1Nc1ncc(Br)cc1Cl` the MIC was over 500 µg/mL. `N#Cc1cnc(Nc2c([N+](=O)[O-])cc(C(F)(F)F)c(Cl)c2[N+](=O)[O-])c(Cl)c1` gave an MIC of 63 µg/mL (≈ 149 µM). In the case of `O=[N+]([O-])c1cc(C(F)(F)F)c(OCC(F)(F)C(F)F)c([N+](=O)[O-])c1Nc1ncc(C(F)(F)F)cc1Cl`, the MIC is reported as over 500 µg/mL. `CNc1nc(Nc2c([N+](=O)[O-])cc(C(F)(F)F)c(Cl)c2[N+](=O)[O-])c(Cl)cc1C(F)(F)F` showed an MIC of over 500 µg/mL. `NC(=O)c1cnc(Nc2c([N+](=O)[O-])cc(C(F)(F)F)c(Cl)c2[N+](=O)[O-])c(Cl)c1` was tested, and the MIC was over 500 µg/mL. `O=[N+]([O-])c1cc(C(F)(F)F)c(OCC(F)(F)F)c([N+](=O)[O-])c1Nc1ncc(C(F)(F)F)cc1Cl` gave an MIC of over 500 µg/mL. Compound `CC(C)Oc1c(C(F)(F)F)cc([N+](=O)[O-])c(Nc2ncc(C(F)(F)F)cc2Cl)c1[N+](=O)[O-]` has an MIC of over 500 µg/mL. For `O=[N+]([O-])c1cc(C(F)(F)F)c(Cl)c([N+](=O)[O-])c1Nc1ncc(C(F)(F)F)cc1Br`, the MIC was under 16 µg/mL. For `O=[N+]([O-])c1cc(C(F)(F)F)c(Cl)c([N+](=O)[O-])c1Nc1ncc(Cl)cc1C(F)(F)F`, the MIC was 16 µg/mL (≈ 34.4 µM). `O=[N+]([O-])c1cc(C(F)(F)F)cc([N+](=O)[O-])c1Nc1ncc(C(F)(F)F)cc1Cl` was tested, and the MIC was over 500 µg/mL. `O=[N+]([O-])c1cc(C(F)(F)F)c(Cl)c([N+](=O)[O-])c1Nc1ncc(Br)cc1C(F)(F)F` showed an MIC of 63 µg/mL (≈ 124 µM). In the case of `CCOC(=O)c1cnc(Nc2c([N+](=O)[O-])cc(C(F)(F)F)c(Cl)c2[N+](=O)[O-])c(Cl)c1`, the MIC is reported as over 500 µg/mL. Compound `CCCSP(=O)(OCC)Oc1c(Cl)cc(Nc2ncc(C(F)(F)F)cc2Cl)cc1Cl` (stereo unspecified) has an MIC of over 500 µg/mL. In the case of `O=[N+]([O-])c1cc(C(F)(F)F)c(Cl)c([N+](=O)[O-])c1Nc1ncc(C(F)(F)F)cc1Cl` [FLUAZINAM], the MIC is reported as under 16 µg/mL. With `O=[N+]([O-])c1cc(C(F)(F)F)c(O)c([N+](=O)[O-])c1Nc1ncc(C(F)(F)F)cc1Cl` the MIC was over 500 µg/mL. In the case of `Nc1cc(C(F)(F)F)c(Cl)c(N)c1Nc1ncc(C(F)(F)F)cc1Cl`, the MIC is reported as over 500 µg/mL. In the case of `CC(C)COc1c(C(F)(F)F)cc([N+](=O)[O-])c(Nc2ncc(C(F)(F)F)cc2Cl)c1[N+](=O)[O-]`, the MIC is reported as over 500 µg/mL. `CS(=O)(=O)c1cc([N+](=O)[O-])c(Nc2ncc(C(F)(F)F)cc2Cl)c([N+](=O)[O-])c1Cl` showed an MIC of over 500 µg/mL. `CSc1c(C(F)(F)F)cc([N+](=O)[O-])c(Nc2ncc(C(F)(F)F)cc2Cl)c1[N+](=O)[O-]` showed an MIC of over 500 µg/mL. For `O=[N+]([O-])c1cc(C(F)(F)F)c(Cl)c([N+](=O)[O-])c1Nc1ncc(Br)cc1Br`, the MIC was over 500 µg/mL. Compound `CCCCOc1c(C(F)(F)F)cc([N+](=O)[O-])c(Nc2ncc(C(F)(F)F)cc2Cl)c1[N+](=O)[O-]` has an MIC of over 500 µg/mL. `FC(F)(F)c1cnc(Nc2cc(Cl)c(Oc3ncc(C(F)(F)F)cc3Cl)c(Cl)c2)c(Cl)c1` was tested, and the MIC was over 500 µg/mL. Work on `O=[N+]([O-])c1cc(C(F)(F)F)c(Cl)c([N+](=O)[O-])c1Nc1ccc(C(F)(F)F)cn1` yielded an MIC of over 500 µg/mL. `CCOP(=O)(Oc1c(Cl)cc(Nc2ncc(C(F)(F)F)cc2Cl)cc1Cl)SC(C)CC` (stereo unspecified) gave an MIC of over 500 µg/mL. In the case of `N#Cc1cc([N+](=O)[O-])c(Nc2ncc(C(F)(F)F)cc2Cl)c([N+](=O)[O-])c1Cl`, the MIC is reported as over 500 µg/mL. `Cc1c(Cl)c([N+](=O)[O-])c(Nc2ncc(C(F)(F)F)cc2Cl)c([N+](=O)[O-])c1Cl` gave an MIC of over 500 µg/mL. Compound `CN(C)c1nc(Nc2c([N+](=O)[O-])cc(C(F)(F)F)c(Cl)c2[N+](=O)[O-])c(Cl)cc1C(F)(F)F` has an MIC of over 500 µg/mL. `O=[N+]([O-])c1cc(C(F)(F)F)c(Oc2ccccc2C(F)(F)F)c([N+](=O)[O-])c1Nc1ncc(C(F)(F)F)cc1Cl` was tested, and the MIC was over 500 µg/mL. In the case of `Nc1c(Cl)c(C(F)(F)F)cc([N+](=O)[O-])c1Nc1ncc(C(F)(F)F)cc1Cl`, the MIC is reported as over 500 µg/mL. `CCCOc1c(C(F)(F)F)cc([N+](=O)[O-])c(Nc2ncc(C(F)(F)F)cc2Cl)c1[N+](=O)[O-]` showed an MIC of over 500 µg/mL. In the case of `O=[N+]([O-])c1cc(C(F)(F)F)c(Cl)c([N+](=O)[O-])c1Nc1ncccc1C(F)(F)F`, the MIC is reported as over 500 µg/mL. Compound `O=[N+]([O-])c1cc(C(F)(F)F)c(Cl)cc1Nc1ncc(C(F)(F)F)cc1Cl` has an MIC of over 500 µg/mL. In the case of `O=[N+]([O-])c1cc(C(F)(F)F)c(Cl)c([N+](=O)[O-])c1Nc1nc(Cl)c(C(F)(F)F)cc1Cl`, the MIC is reported as under 16 µg/mL. With `CCN(CC)S(=O)(=O)c1cc([N+](=O)[O-])c(Nc2ncc(C(F)(F)F)cc2Cl)c([N+](=O)[O-])c1Cl` the MIC was over 500 µg/mL.
